Assay results published in patent US9408891B2, “Methods of using gelsolin to treat or prevent bacterial sepsis” (priority 2003, dated 2016).
“Also recorded” adds a separate entry of the source.

Columns and labels:
[1] = target: T1, recombinant human gelsolin (rhGLS) (Homo sapiens, UniProt P06396); test: Change of gelsolin OD at 280 nm after adding lipids; type: binding; details: OD 280 nm
T1 construct: purchased Biogen IDEC, Inc., Cambridge, Mass; host or cells: E. coli
Description: (§1) Therefore, to determine changes of gelsolin OD at 280 nm, different amounts of LPS, LPA and PS were added to recombinant human gelsolin (rhGLS) solutions and OD emission spectra were recorded using spectrophotometer Genesys 6 (Thermo-Spectronic, USA).

[2] = target: T2, PBP10 (PIP2-binding site of gelsolin) (Homo sapiens, UniProt P06396); test: Rhodamine-B fluorescence change of gelsolin peptide PBP10 after adding lipids; details: 2 μM peptide, buffer A pH 7.0, 15 min
T2 construct: made in house; host or cells: solid phase peptide synthesis
Description: as §1
Interaction of LPS and gelsolin was examined using rhodamine B- and pyrene-labeled SEQ ID No:1 (QRLFQVKGRR). The effect of LPS on gelsolin was determined in terms of the rhodamine-B fluorescent changes of PBP10 peptide in the presence of different lipids (FIG. 1C); and the fluorescence emission spectra of pyrene-labeled SEQ ID No:1 (2 μM) in the presence of LPS from Escherichia coli (1.2 μM), PIP2 (0.82 μM) and LPA (0.82 μM) (FIG. 1D) The results using the pyrene-derivatized gelsolin peptide confirmed the LPS induced clustering of the peptide with resulting excimer fluorescence of the pyrene group, which was evident as a large increase in fluorescence emission at 480 nm.
The tested gelsolin concentration was 50 nM; LTA ranged from 0-50 μM; Pyrene-F-actin was 0.3 μM. Recording changes in fluorescently-labeled (rhodamine B-labeled) gelsolin peptide PBP10 (10 μM), indicates a specific interaction between gelsolin and LTA.

[3] = target: T3, Gc-globulin (vitamin D-binding protein) (Homo sapiens, UniProt P02774); test: Actin-sequestering activity of Gc-globulin; type: biochemical; details: LPS at least up to 100 μM
T3 sequence (P02774 17-474): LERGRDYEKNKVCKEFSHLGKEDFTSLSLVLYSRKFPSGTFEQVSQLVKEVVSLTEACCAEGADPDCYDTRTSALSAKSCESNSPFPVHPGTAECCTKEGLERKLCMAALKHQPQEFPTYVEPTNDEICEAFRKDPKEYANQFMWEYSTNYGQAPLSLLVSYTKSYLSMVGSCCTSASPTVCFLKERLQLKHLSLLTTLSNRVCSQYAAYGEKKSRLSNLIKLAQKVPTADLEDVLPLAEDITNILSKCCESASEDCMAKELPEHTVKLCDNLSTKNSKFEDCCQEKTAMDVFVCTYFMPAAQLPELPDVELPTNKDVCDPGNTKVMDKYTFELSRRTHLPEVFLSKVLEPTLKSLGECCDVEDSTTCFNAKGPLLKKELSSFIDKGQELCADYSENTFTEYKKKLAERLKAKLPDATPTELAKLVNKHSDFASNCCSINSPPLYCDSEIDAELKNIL

[4] = system: NF-κB translocation in rat primary astrocytes; test: NF-κB translocation to the nucleus in astrocytes; type: cell-based; details: astrocytes, 2 hour; LPS 2 μM or TNF-α 10 ng/ml
Description: Rat primary astrocytes were obtained from prenatal rats and maintained for 14 days in culture before use. Embryos (E17-E19) were removed by caesarian section from a Sprague-Dawley rat and the hippocampi were surgically removed. The tissue was digested in trypsin/DNAse at 37° C., centrifuged (1000×5 min) and filtered to derive suspensions from each pup. Cells were grown in an incubator at 37° C. and 5% CO2 in DMEM (Dulbecco's Modified Eagle's Medium; BioWhittaker/Cambrex BioScience, East Rutherford, N.J.), supplemented with Ham's F12 (Sigma-Aldrich, St. Louis, Mo.) and 5% fetal bovine serum (FBS) (Hyclone, Logan, Utah) for 7 days, followed by an additional 7 days in Neurobasal medium (Gibco, Grand Island, N.Y.) also supplemented with 5% FBS, 2 mM l-glutamine, 50 μg/ml streptomycin and 50 U/ml penicillin. In each experiment, the medium was changed to serum-free at 6-12 hours prior to addition of LPS, TNF-α, or gelsolin.
HAECs and astrocytes cultures were incubated for 10 minutes in medium containing 10 μg/ml LPS alone, or LPS that had been pre-incubated with 0.16 mg/ml of human gelsolin. Cultures were fixed with ice-cold methanol and immunostained for F-actin with fluorescein isothiocyanate (FITC)-labeled phalloidin (Molecular Probes, Eugene, Oreg.). In astrocyte cultures, NF-κB translocation was manipulated by a 2 hour incubation in serum-free medium containing one of the following: 10 ng/ml TNF-α, 10 μg/ml LPS alone, or LPS that had been preincubated with 0.16 mg/ml human gelsolin. Location of transcription factor nuclear factor-kappaB (NF-κB) was observed using a monoclonal antibody to NF-κB (Molecular Probes), and cell nuclei were detected by counter-staining with 4′, 6-diamidino-2-phenylindole dihydrochloride (DAPI) (Sigma).

[5] = system: human platelets; test: Collagen-induced aggregation of gel-filtered platelets; type: cell-based; details: collagen 10 μg/ml
Description: To isolate human platelets, blood from healthy volunteers was collected in acid-citrate dextrose. Platelet-rich plasma obtained after centrifugation (15 minutes, 110×g) at room temperature, was supplemented with apyrase (0.5 U/ml) (Sigma-Aldrich) to degrade excess nucleotides. Platelets were sedimented by centrifugation (10 minutes, 1000×g), suspended in buffer A (139 mM NaCl, 2.8 mM KCl, 0.8 mM MgCl2, 0.8 mM KH2PO4, 8.9 mM NaHCO3, 10 mM HEPES, 5.6 mM glucose, 0.3% albumin, pH 7.35) and filtered on a 50 ml column of Sepharose 2B to obtain gel-filtered platelets (GFP).
Platelet aggregation was initiated by adding collagen (10 μg/ml) (Chrono-Log Corp., Havertown, Pa.). Platelet aggregation was monitored using a Chronolog Lumi-Aggregometer (Chrono-Log Corp.). Changes in light transmission were recorded for 10 minutes, using a PowerLab/200 instrument and MacLab Chart program Version 3.2. When required before activation, the platelet suspension was reacted with LPS, or LPS-preincubated with the SEQ ID No:1 peptide (QRLFQVKGRR).

[6] = Neutron scattering of LPS with gelsolin peptide; type: physicochemical; details: preliminary neutron scattering, cylindrical structure
Source text: The molecular structure of LPS and its complexes with proteins can be measured at nm resolution by X-ray and neutron scattering, as well as by electron and atomic force microscopy.
At present, the calculated diameter (36 nm) is greater than that which has been previously reported for pure LPS micelles, and the difference in size may reflect another structural feature. In additional experiments with more variations in gelsolin/LPS or peptide, LPS ratios will reveal if there are significant changes in LPS particle structure when these peptides bind LPS.

T1 sequence (P06396 28-782): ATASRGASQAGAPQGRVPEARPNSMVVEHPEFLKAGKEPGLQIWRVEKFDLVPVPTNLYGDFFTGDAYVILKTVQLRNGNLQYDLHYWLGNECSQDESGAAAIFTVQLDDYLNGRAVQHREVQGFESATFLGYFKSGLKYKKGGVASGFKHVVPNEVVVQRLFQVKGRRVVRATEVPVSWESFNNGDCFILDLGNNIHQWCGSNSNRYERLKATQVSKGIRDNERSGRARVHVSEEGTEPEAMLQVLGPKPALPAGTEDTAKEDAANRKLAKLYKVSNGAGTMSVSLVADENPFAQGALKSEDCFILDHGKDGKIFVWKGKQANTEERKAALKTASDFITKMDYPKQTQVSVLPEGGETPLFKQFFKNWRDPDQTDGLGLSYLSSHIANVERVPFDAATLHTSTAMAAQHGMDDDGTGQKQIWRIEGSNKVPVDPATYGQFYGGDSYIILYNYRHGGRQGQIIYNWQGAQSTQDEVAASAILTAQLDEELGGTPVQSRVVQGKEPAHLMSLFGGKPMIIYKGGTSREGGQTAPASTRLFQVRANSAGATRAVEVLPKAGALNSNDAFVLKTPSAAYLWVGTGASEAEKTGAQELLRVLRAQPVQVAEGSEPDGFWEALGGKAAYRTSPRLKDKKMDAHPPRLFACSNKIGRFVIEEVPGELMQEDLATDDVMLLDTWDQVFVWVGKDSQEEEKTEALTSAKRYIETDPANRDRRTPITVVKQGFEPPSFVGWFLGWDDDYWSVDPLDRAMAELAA

Substance: lipopolysaccharide [LPS]
- maximal decrease in UV absorbance of intact gelsolin [1]: ~35%
- fluorescence quenching / change of rhodamine-B peptide [2]: induced identical concentration-dependent fluorescence quenching
- effect on actin-sequestering activity of Gc-globulin [3]: unaffected
- induction of NF-κB translocation to the nucleus [4]: caused NF-κB translocation to the nucleoplasm; also recorded: resulted in its translocation to the nucleoplasm
- effect of LPS alone on collagen-induced platelet aggregation and secretion [5]: strongly inhibited
- calculated diameter [6]: 36 nm
